Each block holds one substance with its values, some of them ahead of it. No end group written: not given here.
Columns and labels:
[1] = molecular target: δPKC (Homo sapiens, UniProt Q05655); test: In vitro binding assay of δPKC to the peptides
[2] = test system: Rat hearts subjected to I/R; test: Langendorff ex vivo model of myocardial infarction; conditions: ψDrp1 alanine substitution study, n=4
[3] = test system: phosphorylation of Drp1; test: Drp1 phosphorylation after cardiac I/R, ψDrp1 derivatives; conditions: hearts subjected to I/R
[4] = test system: H9c2 cells; format: cell-based; conditions: H9c2, ischemia and reoxygenation
[5] = test system: H9c2 cells; test: Mitochondrial ROS production; conditions: H9c2, ischemia and reoxygenation; peptide 2 μM
[6] = molecular target: T1, εPKC (Homo sapiens, UniProt Q02156); test: In vitro binding assay of εPKC to the peptides; conditions: εPKC at ~75 μg/mL (~1 μM)
T1 sequence (Q02156 1-737): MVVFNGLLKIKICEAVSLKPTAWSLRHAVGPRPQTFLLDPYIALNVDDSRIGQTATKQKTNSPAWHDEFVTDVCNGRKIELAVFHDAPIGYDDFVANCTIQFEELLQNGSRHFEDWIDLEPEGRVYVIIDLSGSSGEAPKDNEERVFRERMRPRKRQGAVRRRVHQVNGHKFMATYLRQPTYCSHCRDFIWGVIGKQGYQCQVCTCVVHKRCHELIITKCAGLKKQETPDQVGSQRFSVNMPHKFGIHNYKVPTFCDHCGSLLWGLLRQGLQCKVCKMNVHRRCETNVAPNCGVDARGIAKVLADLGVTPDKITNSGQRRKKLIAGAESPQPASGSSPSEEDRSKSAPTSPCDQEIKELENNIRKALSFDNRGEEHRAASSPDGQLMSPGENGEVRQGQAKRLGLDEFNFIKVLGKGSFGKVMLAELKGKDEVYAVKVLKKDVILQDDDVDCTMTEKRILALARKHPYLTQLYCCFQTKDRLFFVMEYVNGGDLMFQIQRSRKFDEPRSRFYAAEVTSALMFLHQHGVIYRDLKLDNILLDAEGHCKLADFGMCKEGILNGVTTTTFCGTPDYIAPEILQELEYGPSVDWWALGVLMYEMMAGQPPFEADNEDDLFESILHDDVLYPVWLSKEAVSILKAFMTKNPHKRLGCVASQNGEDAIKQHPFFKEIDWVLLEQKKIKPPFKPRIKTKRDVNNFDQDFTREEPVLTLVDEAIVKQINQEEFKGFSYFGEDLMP

Sequence of δPKC (Q05655 whole entry): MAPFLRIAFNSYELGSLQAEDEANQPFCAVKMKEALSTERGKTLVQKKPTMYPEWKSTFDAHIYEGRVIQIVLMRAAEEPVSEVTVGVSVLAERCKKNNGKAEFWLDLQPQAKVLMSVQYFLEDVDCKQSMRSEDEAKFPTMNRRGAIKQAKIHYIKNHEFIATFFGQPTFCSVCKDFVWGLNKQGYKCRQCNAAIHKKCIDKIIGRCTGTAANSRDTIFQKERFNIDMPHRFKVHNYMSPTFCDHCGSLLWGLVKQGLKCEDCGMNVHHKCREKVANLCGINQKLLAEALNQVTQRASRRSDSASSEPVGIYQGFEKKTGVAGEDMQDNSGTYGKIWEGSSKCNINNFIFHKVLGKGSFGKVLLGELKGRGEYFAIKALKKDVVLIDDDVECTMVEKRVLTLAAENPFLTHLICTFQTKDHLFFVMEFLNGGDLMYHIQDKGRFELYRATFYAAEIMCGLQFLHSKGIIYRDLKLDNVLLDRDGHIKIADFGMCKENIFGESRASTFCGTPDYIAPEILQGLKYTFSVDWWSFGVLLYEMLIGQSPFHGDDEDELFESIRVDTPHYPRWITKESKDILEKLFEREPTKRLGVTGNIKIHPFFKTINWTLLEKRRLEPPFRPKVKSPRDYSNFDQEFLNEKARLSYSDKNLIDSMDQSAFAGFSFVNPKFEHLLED

Kd [1]: 1.4 ± 0.3 nM
Substance: YTDFDE [ψDrp1-Cargo]

Substance: YTAFDE-TAT [ψDrp1 Asp3 Ala]
Protection from cardiac damage [2]: 65%
Effect on Drp1 phosphorylation [3]: inhibited Drp1 phosphorylation

Substance: YGRKKRRQRRRGGYTDFDE-NH2 (C-terminus assumed) [ψDrp1]
Effect on mitochondrial function and cell viability [4]: rescued mitochondrial function and cell viability
Protection from cardiac damage [2]: 75%
Effect on excessive mitochondrial ROS production [5]: decreased excessive mitochondrial ROS production

Binding to εPKC [6]: not to the another PKC isozyme, εPKC
Substance: RAAEEP-NH2 (C-terminus assumed) [ψMARCKS-Cargo]
